Test results reported in US20090143279A1 (priority 2007, published 2009).
Read-outs that look alike come from different tables or passages of the source.

Columns and labels:
reactive oxygen species = type: cell-based, mouse; conditions: for ROS (composite Z-score): normalized score vs mock-treated (DMSO) wells
[1] = system: cellular dehydrogenase activity; conditions: for MTT (composite Z-score): normalized score vs mock-treated (DMSO) wells
nuOXPHOS transcripts = type: cell-based, mouse; conditions: for nucOX (composite Z-score): normalized score vs mock-treated (DMSO) wells
cytochrome c = type: cell-based, mouse; conditions: for cyt c (composite Z-score): normalized score vs mock-treated (DMSO) wells
[2] = system: mitochondrial membrane potential; type: cell-based, mouse; conditions: for ΔΨm (composite Z-score): normalized score vs mock-treated (DMSO) wells
C2C12 myotubes = conditions: for Viability (composite Z-score): normalized score vs mock-treated (DMSO) wells
OXPHOS gene expression = type: cell-based, mouse; conditions: for GE-HTS (composite Z-score): normalized score vs mock-treated (DMSO) wells
mtOXPHOS transcripts = type: cell-based, mouse; conditions: for mitoOX (composite Z-score): normalized score vs mock-treated (DMSO) wells
[3] = composite Z-score vs DMSO, Conc 20 μM
[4] = composite Z-score vs DMSO, Conc 8.94 μM
[5] = composite Z-score vs DMSO wells, Conc 20 μM
[6] = 20 μM, composite Z-score vs DMSO
[7] = normalized composite Z-score vs mock-treated (DMSO) wells, Conc 20 μM
[8] = composite Z-score vs mock-treated (DMSO) wells, concentration of each compound in μM
[9] = Table 4, C2C12 myotubes, 48 h, composite Z-score

CN1C(C)(C)CCCC1(C)C [pempidine]
ROS (reactive oxygen species): 1.119
ROS (reactive oxygen species; [3]): 0.861
MTT [1]: −2.128
MTT [1, 3]: −1.419
nucOX (nuOXPHOS transcripts): −0.425
nucOX (nuOXPHOS transcripts; [3]): −1.035
cyt c (cytochrome c): 0.163
cyt c (cytochrome c; [3]): 0.146
ΔΨm [2]: −0.967
ΔΨm [2, 3]: −0.376
Viability (C2C12 myotubes): −1.023
Viability (C2C12 myotubes; [3]): −0.822
GE-HTS (OXPHOS gene expression): −0.656
GE-HTS (OXPHOS gene expression; [3]): −0.874
mitoOX (mtOXPHOS transcripts): −0.998
mitoOX (mtOXPHOS transcripts; [3]): −0.378

CN[C@@H]1[C@@H](O)[C@@H](O[C@@H]2[C@@H](O)[C@H](O[C@H]3OC(CN)=CC[C@H]3N)[C@@H](N)C[C@H]2N)OC[C@]1(C)O [sisomicin]
ROS (reactive oxygen species; [4]): 1.889
MTT [1, 4]: −1.515
nucOX (nuOXPHOS transcripts; [4]): −0.337
cyt c (cytochrome c; [4]): 0.746
ΔΨm [2, 4]: −0.962
Viability (C2C12 myotubes; [4]): −0.274
GE-HTS (OXPHOS gene expression; [4]): −0.448
mitoOX (mtOXPHOS transcripts; [4]): −0.588

COc1ccc(-c2cc(=O)c3c(O)cc(O[C@@H]4O[C@H](CO[C@@H]5O[C@@H](C)[C@H](O)[C@@H](O)[C@H]5O)[C@@H](O)[C@H](O)[C@H]4O)cc3o2)cc1O [diosmin]
ROS (reactive oxygen species; [5]): 0.321
MTT [1, 5]: −0.708
nucOX (nuOXPHOS transcripts; [5]): −1.150
cyt c (cytochrome c; [5]): −0.433
ΔΨm [2, 5]: −0.501
Viability (C2C12 myotubes; [5]): −0.712
GE-HTS (OXPHOS gene expression; [5]): −1.223
mitoOX (mtOXPHOS transcripts; [5]): −1.147

COc1cc(OC)c2c(=O)cc(-c3ccccc3)oc2c1 [chrysin dimethyl ether]
ROS (composite Z-score) (reactive oxygen species; Conc 20 μM): 1.158
MTT (composite Z-score) ([1]; Conc 20 μM): −1.043
nucOX (composite Z-score) (nuOXPHOS transcripts; Conc 20 μM): 0.444
cyt c (composite Z-score) (cytochrome c; Conc 20 μM): −1.016
ΔΨm (composite Z-score) ([2]; Conc 20 μM): 0.541
Viability (composite Z-score) (C2C12 myotubes; Conc 20 μM): −0.006
GE-HTS (composite Z-score) (OXPHOS gene expression; Conc 20 μM): 0.480
mitoOX (composite Z-score) (mtOXPHOS transcripts; Conc 20 μM): 0.470

CC1(C)C=CC(=O)[C@@]2(C)C1CC(=O)[C@]1(C)C2CC[C@@]2(C)[C@H](c3ccoc3)OC(=O)C3OC321 (stereo partly drawn) [deacetoxy-7-oxisogedunin]
ROS (composite Z-score) (reactive oxygen species; Conc 20 μM): 0.898
MTT (composite Z-score) ([1]; Conc 20 μM): −0.791
nucOX (composite Z-score) (nuOXPHOS transcripts; Conc 20 μM): 0.821
cyt c (composite Z-score) (cytochrome c; Conc 20 μM): 0.153
ΔΨm (composite Z-score) ([2]; Conc 20 μM): 0.332
Viability (composite Z-score) (C2C12 myotubes; Conc 20 μM): −0.301
GE-HTS (composite Z-score) (OXPHOS gene expression; Conc 20 μM): 0.816
mitoOX (composite Z-score) (mtOXPHOS transcripts; Conc 20 μM): 0.694

CC1(C)S[C@@H]2[C@H](NC(=O)C(C(=O)O)c3ccccc3)C(=O)N2[C@H]1C(=O)O (stereo partly drawn) [carbenicillin]
ROS (reactive oxygen species; [6]): 2.042
MTT [1, 6]: −0.565
nucOX (nuOXPHOS transcripts; [6]): −0.835
cyt c (cytochrome c; [6]): −0.074
ΔΨm [2, 6]: 0.298
Viability (C2C12 myotubes; [6]): −0.524
GE-HTS (OXPHOS gene expression; [6]): −0.869
mitoOX (mtOXPHOS transcripts; [6]): −0.823

COc1cccc2c1CCC1CC(=O)CCC21C (stereo not drawn)
ROS (reactive oxygen species; [7]): −0.109
MTT [1, 7]: −1.068
nucOX (nuOXPHOS transcripts; [7]): −0.900
cyt c (cytochrome c; [7]): 1.307
ΔΨm [2, 7]: 1.124
Viability (C2C12 myotubes; [7]): −0.060
GE-HTS (OXPHOS gene expression; [7]): −0.872
mitoOX (mtOXPHOS transcripts; [7]): −0.612

COc1cc(C(C)=O)cc(OC)c1O [acetosyringone]
ROS (reactive oxygen species; [3]): 0.269
MTT [1, 3]: −1.266
nucOX (nuOXPHOS transcripts; [3]): −0.040
cyt c (cytochrome c; [3]): 0.310
ΔΨm [2, 3]: −0.370
Viability (C2C12 myotubes; [3]): −0.432
GE-HTS (OXPHOS gene expression; [3]): 0.029
mitoOX (mtOXPHOS transcripts; [3]): 0.201

CCCOc1ccccc1-c1nc2nn[nH]c2c(=O)[nH]1 [zaprinast]
ROS (reactive oxygen species; [5]): −0.482
MTT [1, 5]: −1.175
nucOX (nuOXPHOS transcripts; [5]): 0.220
cyt c (cytochrome c; [5]): 0.226
ΔΨm [2, 5]: −0.347
Viability (C2C12 myotubes; [5]): 0.602
GE-HTS (OXPHOS gene expression; [5]): 0.076
mitoOX (mtOXPHOS transcripts; [5]): −0.234

CCC[C@H]1CC2=C(C[C@@H](CC)CC3=C1C(=O)OC3=O)C(=O)OC2=O [byssochlamic acid]
ROS (composite Z-score) (reactive oxygen species; Conc 20 μM): 0.253
MTT (composite Z-score) ([1]; Conc 20 μM): −0.488
nucOX (composite Z-score) (nuOXPHOS transcripts; Conc 20 μM): −0.069
cyt c (composite Z-score) (cytochrome c; Conc 20 μM): −1.053
ΔΨm (composite Z-score) ([2]; Conc 20 μM): −0.092
Viability (composite Z-score) (C2C12 myotubes; Conc 20 μM): −0.241
GE-HTS (composite Z-score) (OXPHOS gene expression; Conc 20 μM): −0.230
mitoOX (composite Z-score) (mtOXPHOS transcripts; Conc 20 μM): −0.458

CC(=O)O.CSC(=N)NCCC[C@H](N)C(=O)O [S-methyl-L-thiocitrulline acetate]
ROS (reactive oxygen species; [8]): 0.052
MTT [1, 8]: −0.262
nucOX (nuOXPHOS transcripts; [8]): 0.325
cyt c (cytochrome c; [8]): 0.533
ΔΨm [2, 8]: −0.542
Viability (C2C12 myotubes; [8]): 0.613
GE-HTS (OXPHOS gene expression; [8]): 0.291
mitoOX (mtOXPHOS transcripts; [8]): 0.173

COc1cc2c(cc1OC)C1C(=O)c3c(cc4c(c3O)C=CC(C)(C)O4)OC1CO2 (stereo not drawn) [beta-toxicarol, reference compound]
ROS (reactive oxygen species; [9]): −0.188
ROS (reactive oxygen species; [7]): −0.188
MTT [1, 9]: −1.498
MTT [1, 7]: −1.498
nucOX (nuOXPHOS transcripts; [7]): −1.773
cyt c (cytochrome c; [7]): −0.239
ΔΨm ([2]; Table 4, C2C12 myotubes, 48 h, JC-1, composite Z-score): 0.899
ΔΨm [2, 7]: 0.899
Viability (C2C12 myotubes; [9]): 0.672
Viability (C2C12 myotubes; [7]): 0.672
GE-HTS (OXPHOS gene expression; [7]): −1.508
mitoOX (mtOXPHOS transcripts; [7]): −0.627
